Test results as given in patent publication US8192962B2, “Processes for detecting toxic substances” (Daikin Industries, Ltd., priority 2001, dated 2012).

Tested on: Energy system protein genes
Test: DNA chip mRNA expression in yeast, energy system protein genes (Table 4)
Assay type: cell-based, Saccharomyces cerevisiae S288C
Method in brief: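 First, S288C yeast grown in YPD at 25° C. are dosed in log phase with one toxicant (growth-inhibiting, not lethal) for 2 h. Next, total RNA is extracted and poly(A) mRNA isolated and reverse-transcribed with Cy3/Cy5-dUTP. Finally, whole-genome chip fluorescence is read relative to unexposed cells.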

Structure (SMILES): Oc1cc(Cl)c(Cl)cc1Cl [(6), 2,4,5-trichlorophenol]
- The level of expressed mRNA in the presence of chemical substance/The level of expressed mRNA in the absence of chemical substance (yeast gene YAL060W): 4.2
- The level of expressed mRNA in the presence of chemical substance/The level of expressed mRNA in the absence of chemical substance (yeast gene YBL058W, cells incubated two hours with the chemical substance): 0.9
- The level of expressed mRNA in the presence of chemical substance/The level of expressed mRNA in the absence of chemical substance (yeast gene YBL099W, cells incubated two hours with the chemical substance): 0.9
- The level of expressed mRNA in the presence of chemical substance/The level of expressed mRNA in the absence of chemical substance (yeast gene YBR001C, cells incubated two hours with the chemical substance): 1.1
- The level of expressed mRNA in the presence of chemical substance/The level of expressed mRNA in the absence of chemical substance (yeast gene YBR126C): 2.9
- The level of expressed mRNA in the presence of chemical substance/The level of expressed mRNA in the absence of chemical substance (yeast gene YBR185C, cells incubated two hours with the chemical substance): 1.2
- The level of expressed mRNA in the presence of chemical substance/The level of expressed mRNA in the absence of chemical substance (yeast gene YBR221C, cells incubated two hours with the chemical substance): 1.7
- The level of expressed mRNA in the presence of chemical substance/The level of expressed mRNA in the absence of chemical substance (yeast gene YCL040W): 3.5
- The level of expressed mRNA in the presence of chemical substance/The level of expressed mRNA in the absence of chemical substance (yeast gene YCR012W): 2.5
- The level of expressed mRNA in the presence of chemical substance/The level of expressed mRNA in the absence of chemical substance (yeast gene YCR046C, cells incubated two hours with the chemical substance): 0.8
- The level of expressed mRNA in the presence of chemical substance/The level of expressed mRNA in the absence of chemical substance (yeast gene YCR105W, cells incubated two hours with the chemical substance): 1.0
- The level of expressed mRNA in the presence of chemical substance/The level of expressed mRNA in the absence of chemical substance (yeast gene YDL021W): 6.5
- The level of expressed mRNA in the presence of chemical substance/The level of expressed mRNA in the absence of chemical substance (yeast gene YDL067C, cells incubated two hours with the chemical substance): 0.9
- The level of expressed mRNA in the presence of chemical substance/The level of expressed mRNA in the absence of chemical substance (yeast gene YDL078C, cells incubated two hours with the chemical substance): 1.1
- The level of expressed mRNA in the presence of chemical substance/The level of expressed mRNA in the absence of chemical substance (yeast gene YDL107W, cells incubated two hours with the chemical substance): 1.3
- The level of expressed mRNA in the presence of chemical substance/The level of expressed mRNA in the absence of chemical substance (yeast gene YDL174C): 1.7
- The level of expressed mRNA in the presence of chemical substance/The level of expressed mRNA in the absence of chemical substance (yeast gene YDL181W, cells incubated two hours with the chemical substance): 1.2
- The level of expressed mRNA in the presence of chemical substance/The level of expressed mRNA in the absence of chemical substance (yeast gene YDR001C): 2.2
- The level of expressed mRNA in the presence of chemical substance/The level of expressed mRNA in the absence of chemical substance (yeast gene YDR050C, cells incubated two hours with the chemical substance): 1.7
- The level of expressed mRNA in the presence of chemical substance/The level of expressed mRNA in the absence of chemical substance (yeast gene YDR079W, cells incubated two hours with the chemical substance): 1.7
- The level of expressed mRNA in the presence of chemical substance/The level of expressed mRNA in the absence of chemical substance (yeast gene YDR178W, cells incubated two hours with the chemical substance): 2.1
- The level of expressed mRNA in the presence of chemical substance/The level of expressed mRNA in the absence of chemical substance (yeast gene YDR231C): 2.2
- The level of expressed mRNA in the presence of chemical substance/The level of expressed mRNA in the absence of chemical substance (yeast gene YDR298C, cells incubated two hours with the chemical substance): 1.2
- The level of expressed mRNA in the presence of chemical substance/The level of expressed mRNA in the absence of chemical substance (yeast gene YDR377W, cells incubated two hours with the chemical substance): 1.3
- The level of expressed mRNA in the presence of chemical substance/The level of expressed mRNA in the absence of chemical substance (yeast gene YDR529C, cells incubated two hours with the chemical substance): 0.8
- The level of expressed mRNA in the presence of chemical substance/The level of expressed mRNA in the absence of chemical substance (yeast gene YEL024W, cells incubated two hours with the chemical substance): 1.1
- The level of expressed mRNA in the presence of chemical substance/The level of expressed mRNA in the absence of chemical substance (yeast gene YEL039C, cells incubated two hours with the chemical substance): 1.5
- The level of expressed mRNA in the presence of chemical substance/The level of expressed mRNA in the absence of chemical substance (yeast gene YER178W): 2.5
- The level of expressed mRNA in the presence of chemical substance/The level of expressed mRNA in the absence of chemical substance (yeast gene YFL057C): 1.2
- The level of expressed mRNA in the presence of chemical substance/The level of expressed mRNA in the absence of chemical substance (yeast gene YFR015C): 3.0
- The level of expressed mRNA in the presence of chemical substance/The level of expressed mRNA in the absence of chemical substance (yeast gene YFR053C): 3.2
- The level of expressed mRNA in the presence of chemical substance/The level of expressed mRNA in the absence of chemical substance (yeast gene YGL018C, cells incubated two hours with the chemical substance): 0.4
- The level of expressed mRNA in the presence of chemical substance/The level of expressed mRNA in the absence of chemical substance (yeast gene YGL062W): 1.0
- The level of expressed mRNA in the presence of chemical substance/The level of expressed mRNA in the absence of chemical substance (yeast gene YGL187C, cells incubated two hours with the chemical substance): 1.1
- The level of expressed mRNA in the presence of chemical substance/The level of expressed mRNA in the absence of chemical substance (yeast gene YGL191W, cells incubated two hours with the chemical substance): 1.6
- The level of expressed mRNA in the presence of chemical substance/The level of expressed mRNA in the absence of chemical substance (yeast gene YGL205W, cells incubated two hours with the chemical substance): 1.6
- The level of expressed mRNA in the presence of chemical substance/The level of expressed mRNA in the absence of chemical substance (yeast gene YGL256W, cells incubated two hours with the chemical substance): 0.7
- The level of expressed mRNA in the presence of chemical substance/The level of expressed mRNA in the absence of chemical substance (yeast gene YGR008C): 2.9
- The level of expressed mRNA in the presence of chemical substance/The level of expressed mRNA in the absence of chemical substance (yeast gene YGR043C): 16.3
- The level of expressed mRNA in the presence of chemical substance/The level of expressed mRNA in the absence of chemical substance (yeast gene YGR062C, cells incubated two hours with the chemical substance, 25° C., YPD medium): 0.9
- The level of expressed mRNA in the presence of chemical substance/The level of expressed mRNA in the absence of chemical substance (yeast gene YGR087C, cells incubated two hours with the chemical substance): 1.1
- The level of expressed mRNA in the presence of chemical substance/The level of expressed mRNA in the absence of chemical substance (yeast gene YGR174C, cells incubated two hours with the chemical substance): 1.4
- The level of expressed mRNA in the presence of chemical substance/The level of expressed mRNA in the absence of chemical substance (yeast gene YGR192C): 1.7
- The level of expressed mRNA in the presence of chemical substance/The level of expressed mRNA in the absence of chemical substance (yeast gene YGR207C): 2.8
- The level of expressed mRNA in the presence of chemical substance/The level of expressed mRNA in the absence of chemical substance (yeast gene YGR244C): 2.6
- The level of expressed mRNA in the presence of chemical substance/The level of expressed mRNA in the absence of chemical substance (yeast gene YGR254W): 1.9
- The level of expressed mRNA in the presence of chemical substance/The level of expressed mRNA in the absence of chemical substance (yeast gene YGR256W): 6.2
- The level of expressed mRNA in the presence of chemical substance/The level of expressed mRNA in the absence of chemical substance (yeast gene YHL008C): 0.8
- The level of expressed mRNA in the presence of chemical substance/The level of expressed mRNA in the absence of chemical substance (yeast gene YHR174W): 1.5
- The level of expressed mRNA in the presence of chemical substance/The level of expressed mRNA in the absence of chemical substance (yeast gene YHR179W): 3.7
- The level of expressed mRNA in the presence of chemical substance/The level of expressed mRNA in the absence of chemical substance (yeast gene YIL045W): 1.7
- The level of expressed mRNA in the presence of chemical substance/The level of expressed mRNA in the absence of chemical substance (yeast gene YIL111W): 2.6
- The level of expressed mRNA in the presence of chemical substance/The level of expressed mRNA in the absence of chemical substance (yeast gene YIL160C): 1.6
- The level of expressed mRNA in the presence of chemical substance/The level of expressed mRNA in the absence of chemical substance (yeast gene YIR031C, cells incubated two hours with the chemical substance): 1.7
- The level of expressed mRNA in the presence of chemical substance/The level of expressed mRNA in the absence of chemical substance (yeast gene YJL052W): 2.4
- The level of expressed mRNA in the presence of chemical substance/The level of expressed mRNA in the absence of chemical substance (yeast gene YJL121C, cells incubated two hours with the chemical substance): 1.1
- The level of expressed mRNA in the presence of chemical substance/The level of expressed mRNA in the absence of chemical substance (yeast gene YJL166W, cells incubated two hours with the chemical substance): 0.7
- The level of expressed mRNA in the presence of chemical substance/The level of expressed mRNA in the absence of chemical substance (yeast gene YJR009C): 1.6
